Measurements reported in patent US5101059A, “Amino acid protecting groups” (Research Corporation Technologies, Inc., priority 1989, dated 1992).
Blank lines part the entries; values can stand above or below the compound they belong to.

How the values were obtained:
Assay type in all cases: physicochemical
[1] = Stability of 9-xanthenylmethyl carbanilate towards catalytic hydrogenolysis; conditions: 5% Pd/C and palladium acetate, 40 psi hydrogen, 24 hours
Method: 5. Stability of 9-Xanthenylmethyl Carbanilate Towards Catalytic Hydrogenolysis: To a solution of 300 mg of Xmoc-aniline in 30 mL of EtOAc and 10 mL of 100% EtOH was added 30 mg of 5% palladium on charcoal and 30 mg of palladium acetate. The mixture was shaken under hydrogen at a pressure of 40 psi in a Parr apparatus for 24 hours. […] 178°-181° C., the ^1 H NMR and IR spectra of which matched that of an authentic sample.

[2] = Solubility of TMS-Fmoc and dichloro-Xmoc derivatives versus Fmoc analogs; conditions: in CH2Cl2
Method: This latter property is particularly important when peptide synthesis is carried out in solution.

[3] = Stability of substituted Fmoc-PCA in acetic acid; conditions: glacial acetic acid 10 eq., CH2Cl2, room temperature, 48 hours
Method: 2. […] The mixture was stirred at room temperature for 48 hours. […] The mixture was washed with half sat'd NaHCO3 (2×10 mL) and water (10 mL). […] 161°-163° C., the IR and ^1 H NMR spectra of which matched that of an authentic sample.
3. Stability of 9-Trimethylsilyl-9-[…] p-Chlorocarbanilate in Acetic Acid: To a solution of 0.37 g of TMS-Fmoc-PCA in 10 mL of CH2 Cl2 was added 0.5 mL (10 eq.) of glacial acetic acid. The mixture was stirred at room temperature. […] The mixture was washed with half sat'd NaHCO3 (2×10 mL) and H2 O (10 mL). […] 124°-126° C., the ^1 H NMR and IR spectra of which matched that of an authentic sample.

[4] = Base deblocking of substituted urethanes (U-PCA) by various amines; conditions: dichloromethane, room temperature
From the text: 1. General Procedure for Studying the Base Deblocking of the Urethanes Fmoc-PCA, BTS-Fmoc-PCA, DT-Fmoc-PCA, and TMS-Fmoc-PCA: A mixture of urethane (0.05 mmol) in a solution prepared from an equal volume of base (2.5 mmol, 50 eq.) and dichloromethane was stirred at room temperature. The course of the reaction was monitored by TLC with an eluant consisting of Skelly B--ether (3:1).

[5] = Base deblocking of R-Fmoc-aniline by various amines; conditions: room temperature
Method: 2. General Procedure for Studying the Base Deblocking of the Urethanes R-Fmoc-aniline (R=TMS, DMPS, DPMS, DT-TMS, TIPS): A solution of urethane (0.05 mmol) in a sample of redistilled base (5 mmol, 100 eq.) was allowed to stand at room temperature. The reaction was monitored periodically by TLC with an eluant consisting of Skelly B--CH2 Cl2 (1:1). No reaction occurred according to the TLC test for urethanes having R=TIPS in the case of any of the bases tested after 24 hours.

[6] = Stability of substituted Fmoc-aniline to catalytic hydrogenation; conditions: palladium on charcoal, hydrogen 1 atm, 20 hours
Method: 1. Deblocking of 2,7-Bistrimethyl-silyl)-9-fluorenylmethyl Carbanilate: To a solution of 0.2 g BTS-Fmoc-aniline in 15 mL of 100% ethanol and 15 mL of EtOAc was added 20 mg of 10% palladium on charcoal at 0° C. The heterogeneous mixture was stirred under a hydrogen atmosphere (1 atm) for 20 hours. The catalyst was filtered and rinsed with EtOAc (2×5 mL). The combined filtrate was washed with sat'd NH4 Cl (2×20 mL), water (20 mL), and dried over anhydrous MgSO4. After evaporating the solvent in vacuo, the residue (0.14 g) was recrystallized from 95% ethanol to afford 0.11 g (78.0%) of 2,7-bis(trimethylsilyl)-9-methylfluorene as white needles, m.p. 106.5°-108° C., identified by mixture melting point, IR, and NMR spectral comparison with an authentic sample obtained as described above.
2. Stability of 9-Trimethylsilyl-9-fluorenylmethyl Carbanilate Towards Catalytic Hydrogenation: To a mixture of 0.15 g of TMS-Fmoc-analine and 0.15 g of BTS-Fmoc-analine in 20 mL of ethyl acetate and 30 mL of 100% ethanol was added 30 mg of […] palladium on charcoal. The mixture was magnetically stirred at room temperature under a hydrogen atmosphere (1 atm) for 20 hours. The catalyst was removed by filtration and rinsed with EtOAc (2×5 mL). […] Recrystallization of the former from 95% ethanol gave 78.3 mg (74.1%) of the pure silane, m.p. 107°-108.5° C. […]

[7] = Deblocking of R-Fmoc-aniline by fluoride ion; conditions: tetra-n-butylammonium chloride 3.0 eq., KF dihydrate 4.1 eq., acetonitrile, room temperature
Method: 3. General Procedure for Studying the Deblocking of Urethanes R-Fmoc-aniline (R=TMS, DMPS, DPMS, TIPS, DT-TMS) by Reaction with Fluoride Ion: To a solution of urethane (0.0513 mmol) in 0.7 mL of acetonitrile was added 45 mg (0.154 mmol, 3.0 eq.) of tetra-n-butyl-ammonium chloride and 20 mg (0.213 mmol, 4.1 eq.) of potassium fluoride dihydrate. The mixture was stirred at room temperature, the reaction being monitored by TLC with an eluant consisting of Skelly B--CH2 Cl2 (1:1).

[8] = Deblocking of R-Fmoc-aniline by trifluoroacetic acid; conditions: room temperature
From the text: 1. General Procedure for Studying the stability of R-Fmoc-analine (R=TMS, DMPS, DPMS, DT-TMS, TIPS) in Trifluoroacetic Acid: To a solution of urethane (0.026 mmol) in […].) of trifluoroacetic acid. The mixture was stirred at room temperature and the course of the reaction was monitored by TLC with an eluant consisting of Skelly B--dichloromethane (1:1) to note the time needed for complete deblocking of the urethanes.

[9] = Base deblocking of 9-xanthenylmethoxycarbonyl-L-phenylalanine; conditions: room temperature
Method: A. Base Deblocking of 9-Xanthenylmethoxycarbonyl-L-phenylalanine: 1. In DBU Solution: To a solution of 13.08 mg of Xmoc-Phe-Oh in 0.5 mL of DMF was added 0.5 mL of 1,8-diazabicyclo[5,4,0]-undec-7-ene (DBU, 100 eq.). The mixture was stirred at room temperature. The reaction was monitored by TLC with an eluant consisting of CHCl3 --CH3 OH--CH3 CO2 H (9:1:0.1). Deblocking was complete after 36 hours. 2. In TBD Solution: To a solution of 7.25 mg of Xmoc-Phe-OH in 0.1 mL of pyridine and 0.1 mL of DMF was added 50 mg (20 eq.) of 1,5,9-triazabicyclo[4,4,0]dec-5-ene (TBD). The mixture was stirred at room temperature and monitored by TLC with an eluant consisting of CHCl3 --CH3 OH--CH3 CO2 H (9:1:0.1). Deblocking was complete after 4.5 hours.

- recovered urethane [1]: 94.3%
- stability towards catalytic hydrogenolysis (TLC) [1]: remained intact
SMILES: O=C(Nc1ccccc1)OCC1c2ccccc2Oc2ccccc21 [Xmoc-aniline, 9-Xanthenylmethyl Carbanilate]

SMILES: C[Si](C)(C)C1(COC(=O)Nc2ccc(Cl)cc2)c2ccccc2-c2ccccc21 [TMS-Fmoc-PCA, 9-Trimethylsilyl-9-fluorenylmethyl p-Chlorocarbanilate]
- solubility relative to that of the Fmoc analog [2]: 16 times
- soluble to the extent of (solubility) [2]: 53 g/100 mL
- recovered urethane [3]: 97.5%
- stability in acetic acid (TLC) [3]: no change
- Time for Complete Deblocking ([4]; ethanolamine 50 eq.): 150 min
- Time for Complete Scavenging of Dibenzofulvene Analogs ([4]; morpholine 50 eq.): 16.5 hr
- Time for Complete Deblocking ([4]; morpholine 50 eq., significant aminodibenzofulvene type adduct formed): 780 min
- Time for Complete Scavenging of Dibenzofulvene Analogs ([4]; piperidine 50 eq.): 195 min
- Time for Complete Deblocking ([4]; piperidine 50 eq., significant aminodibenzofulvene type adduct formed): 129 min
- Time for Complete Deblocking ([4]; t-butylamine 50 eq.): > 2900 min

SMILES: C[Si](C)(C)C1(COC(=O)Nc2ccccc2)c2ccccc2-c2ccccc21 [TMS-Fmoc-aniline, 9-Trimethylsilyl-9-fluorenylmethyl Carbanilate]
- Time for Complete Deblocking ([5]; morpholine 100 eq.): 180 min
- Time for Complete Scavenging of Dibenzofulvene ([5]; morpholine 100 eq.): 240 min
- Time for Complete Deblocking ([5]; piperidine 100 eq.): 100 min
- Time for Complete Scavenging of Dibenzofulvene ([5]; piperidine 100 eq.): 300 min
- Time for Complete Deblocking ([5]; t-butylamine 100 eq.): 720 min
- recovered urethane ([6]; room temperature): 93.3%
- Time for Complete Deblocking by Fluoride Ion [7]: 5 min
- Time for Complete Deblocking by Trifluoroacetic Acid [8]: 5 h

- Time for Complete Deblocking ([9]; DBU 100 eq., DMF): 36 h
- Time for Complete Deblocking ([9]; TBD 20 eq., pyridine and DMF): 4.5 h
SMILES: O=C(N[C@@H](Cc1ccccc1)C(=O)O)OCC1c2ccccc2Oc2ccccc21 [Xmoc-Phe-OH, 9-Xanthenylmethoxycarbonyl-L-phenylalanine]

SMILES: C[Si](C)(C)c1ccc2c(c1)C(COC(=O)Nc1ccccc1)c1cc([Si](C)(C)C)ccc1-2 [BTS-Fmoc-aniline, 2,7-Bis(trimethylsilyl)-9-fluorenylmethyl Carbanilate]
- product of catalytic hydrogenation (deblocking) [6]: 2,7-bis(trimethylsilyl)-9-methylfluorene
